For assay [1], the system named is Cavia porcellus. Description: Ex vivo platelet aggregation of compound was measured in guinea pig up to 5 hr after intraduodenal dose of 1 mg/kg. It counts as functional.
For assay [2], the system named is Cavia porcellus. Description: Ex vivo platelet aggregation of compound was measured in guinea pig up to 5 hr after intraduodenal dose of 3 mg/kg. It counts as functional.
Assay [3] is filed under the species Homo sapiens. Briefly: Tested in vitro for the inhibition of ADP-induced aggregation of human blood platelets. In kind it is functional.
Assay [4] deals with T1, Integrin alpha-IIb/beta-3 (Homo sapiens, UniProt P05106+P08514). Briefly: Inhibition of fibrinogen binding to immobilized human glycoprotein alpha IIb beta-3 integrin. In kind it is protein-complex assay.
T1 sequence (P05106 27-788 limits assumed): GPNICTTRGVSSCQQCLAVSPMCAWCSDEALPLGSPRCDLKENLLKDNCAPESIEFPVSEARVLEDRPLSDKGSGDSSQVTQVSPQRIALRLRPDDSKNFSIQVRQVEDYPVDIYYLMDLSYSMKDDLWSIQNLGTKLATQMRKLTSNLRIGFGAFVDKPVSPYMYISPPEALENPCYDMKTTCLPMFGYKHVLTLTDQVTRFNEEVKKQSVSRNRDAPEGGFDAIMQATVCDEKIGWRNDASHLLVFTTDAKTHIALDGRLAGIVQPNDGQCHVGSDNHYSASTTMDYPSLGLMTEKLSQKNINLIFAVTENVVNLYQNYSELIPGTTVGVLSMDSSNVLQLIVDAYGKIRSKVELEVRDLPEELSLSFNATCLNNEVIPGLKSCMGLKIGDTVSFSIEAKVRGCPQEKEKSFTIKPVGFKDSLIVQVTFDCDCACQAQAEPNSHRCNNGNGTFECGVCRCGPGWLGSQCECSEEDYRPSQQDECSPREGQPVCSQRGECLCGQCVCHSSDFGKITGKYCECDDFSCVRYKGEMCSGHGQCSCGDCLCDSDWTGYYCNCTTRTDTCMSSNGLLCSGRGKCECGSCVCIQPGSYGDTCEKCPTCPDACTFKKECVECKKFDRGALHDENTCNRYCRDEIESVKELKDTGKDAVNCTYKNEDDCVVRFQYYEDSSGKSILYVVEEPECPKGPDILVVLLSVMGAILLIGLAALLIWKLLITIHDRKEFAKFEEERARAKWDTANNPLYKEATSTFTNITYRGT
T1 sequence (P08514 32-887 limits assumed): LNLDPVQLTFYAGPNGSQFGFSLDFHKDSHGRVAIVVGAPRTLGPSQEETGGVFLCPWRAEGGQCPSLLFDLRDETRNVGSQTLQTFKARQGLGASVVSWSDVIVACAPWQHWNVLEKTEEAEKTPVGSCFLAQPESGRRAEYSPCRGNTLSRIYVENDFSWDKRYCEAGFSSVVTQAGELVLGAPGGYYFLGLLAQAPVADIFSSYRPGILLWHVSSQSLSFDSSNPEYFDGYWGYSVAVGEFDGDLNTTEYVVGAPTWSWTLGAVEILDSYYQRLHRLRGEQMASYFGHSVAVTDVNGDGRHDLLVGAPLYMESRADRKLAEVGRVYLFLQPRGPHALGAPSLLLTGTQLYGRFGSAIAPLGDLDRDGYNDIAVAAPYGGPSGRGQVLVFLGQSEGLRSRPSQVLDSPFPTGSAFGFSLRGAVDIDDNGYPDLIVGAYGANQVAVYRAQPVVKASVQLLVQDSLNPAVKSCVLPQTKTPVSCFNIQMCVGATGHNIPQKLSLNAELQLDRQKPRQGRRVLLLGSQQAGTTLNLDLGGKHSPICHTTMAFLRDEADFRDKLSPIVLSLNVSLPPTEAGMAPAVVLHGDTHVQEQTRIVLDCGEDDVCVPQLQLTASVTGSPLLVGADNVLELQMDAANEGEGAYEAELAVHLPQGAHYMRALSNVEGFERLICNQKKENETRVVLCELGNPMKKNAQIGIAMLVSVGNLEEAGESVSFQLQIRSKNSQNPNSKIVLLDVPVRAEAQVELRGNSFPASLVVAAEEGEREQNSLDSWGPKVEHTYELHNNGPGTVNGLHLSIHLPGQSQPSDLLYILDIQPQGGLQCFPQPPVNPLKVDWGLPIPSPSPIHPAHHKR
T1 sequence (P08514 891-1039 limits assumed): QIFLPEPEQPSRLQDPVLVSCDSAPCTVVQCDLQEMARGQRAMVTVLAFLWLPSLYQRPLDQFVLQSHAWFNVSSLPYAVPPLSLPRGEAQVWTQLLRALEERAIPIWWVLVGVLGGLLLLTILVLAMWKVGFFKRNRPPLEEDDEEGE
For assay [5], the system named is Cavia porcellus. Briefly: Ex vivo platelet aggregation of compound was measured in guinea pig up to 5 hr after intraduodenal dose of 0.3 mg/kg. It counts as functional.
Assay [6] has as its system Cavia porcellus. Briefly: Ex vivo platelet aggregation of compound was measured in guinea pig up to 5 hr after intraduodenal dose of 10 mg/kg. It counts as functional.
Assay [7] concerns the target T1, Integrin alpha-IIb/beta-3. Briefly: Inhibition of fibrinogen binding to GPllb/IIIa receptor. It counts as protein-complex assay.

Drawing on ChEMBL document CHEMBL1129882, “Beta-amino acid derivatives as orally active non-peptide fibrinogen receptor antagonists” (Bioorg Med Chem Lett, 1997), this text covers inhibition in vivo and IC50 for twelve compounds.

For `CC(C)CC(=O)N[C@H](CCCCNC(=O)c1ccc(C(=N)N)cc1)CC(=O)O`, in assay [1], the inhibition in vivo (as a rule, the drop in the measured response relative to a control, in per cent) at 1 mg/kg worked out at 65%. The inhibition in vivo at 3 mg/kg in assay [2] is 75%. For the same compound, the concentration for half-maximal inhibition (IC50) (usually the concentration at which inhibition is half-maximal) in assay [3] is 15 nM; in assay [4] it was 0.54 nM.

For the compound `CC(C)CNC(=O)[C@@H](CCCNC(=O)Cc1ccc(C(=N)N)cc1)CC(=O)O`, the IC50 in assay [3] came out at 950 nM; in assay [4], 7.9 nM.

Turning to `COc1ccc(CCS(=O)(=O)N[C@H](CCCCNC(=O)c2ccc(C(=N)N)cc2)CC(=O)O)cc1`, the half-inhibitory concentration (IC50) in assay [3] was determined as 79 nM; in assay [4], 1 nM.

As to `CC(C)CC(=O)N[C@@H](CCCNC(=O)Cc1ccc(C(=N)N)cc1)CC(=O)O`, at 1 mg/kg the inhibition in vivo in assay [1] was 25%. The compound further gave an inhibition in vivo at 3 mg/kg in assay [2] of 75%. This compound yielded an IC50 in assay [3] of 100 nM.

`COc1ccc(CCC(=O)N[C@H](CCCCNC(=O)c2ccc(C(=N)N)cc2)CC(=O)O)cc1`: in assay [5], the inhibition in vivo at 0.3 mg/kg stood at 45%. The compound also came in with an inhibition in vivo at 1 mg/kg in assay [1] of 90%. In addition, the IC50 in assay [3] was found to be 18 nM; in assay [4], 0.36 nM.

For the compound `N=C(N)c1ccc(CC(=O)NCCC[C@@H](CC(=O)O)NC(=O)CCC23C[C@H]4C[C@@H](C2)C[C@@H](C3)C4)cc1`, in assay [2], the inhibition in vivo at 3 mg/kg stood at 10%. In addition, the IC50 in assay [3] worked out at 61 nM; in assay [4], 0.37 nM.

Compound `COc1ccc(CCC(=O)N[C@@H](CCCNC(=O)Cc2ccc(C(=N)N)cc2)CC(=O)O)cc1` showed an inhibition in vivo at 1 mg/kg in assay [1] of 10%. In addition, in assay [2], the inhibition in vivo at 3 mg/kg was determined as 10%. Also, the values for the IC50 in assay [3] and in assay [4] were 31 nM and 1.1 nM, respectively.

As for `Cc1ccc(S(=O)(=O)N[C@@H](CCCNC(=O)Cc2ccc(C(=N)N)cc2)CC(=O)O)cc1`, 10 mg/kg produced 10% inhibition in vivo in assay [6]. This compound also came in with an IC50 in assay [3] of 640 nM.

`N=C(N)c1ccc(CC(=O)NCCC[C@@H](CC(=O)O)NC(=O)CC23C[C@H]4C[C@@H](C2)C[C@@H](C3)C4)cc1`: the IC50 in assay [3] was 67 nM; in assay [4] it was 2.2 nM.

As to `Cc1ccc(S(=O)(=O)N[C@@H](CCCNC(=O)Cc2ccc(C(=N)N)cc2)C(=O)O)cc1`, the IC50 came out at 31000 nM in assay [3] and 48000 nM in assay [4].

The compound `N=C(N)c1ccc(C(=O)NCCCC[C@H](CC(=O)O)NC(=O)Cc2cccc3ccccc23)cc1` returned an inhibition in vivo at 1 mg/kg in assay [1] of 40%. In addition, the results for the IC50 in assay [3] and in assay [4] were 18 nM and 0.36 nM, respectively.

Consider `Cc1ccc(S(=O)(=O)N[C@@H](CCCNC(=O)OCc2ccccc2)C(=O)O)cc1` [ORNITHINE SULFONAMIDE], for which the half-maximal inhibitory concentration (IC50) in assay [7] came out at 20000 nM.
